Paper PMC8745505, “In Vitro Investigation of Binding Interactions between Albumin–Gliclazide Model and Typical Hypotensive Drugs” (International Journal of Molecular Sciences, 2021)
Where “and” joins values, the source holds several entries; their conditions need not be identical. Equal entries are not always repeated. Structures can show the parent of a compound that is named as a salt. Where two headings read alike, the source gives them in different places. Each block holds one compound with its values, some of them ahead of it.

Columns and labels:
[1] = target: T1, bovine serum albumin (BSA) (Bos taurus, UniProt P02769); settings: for Stern–Volmer quenching constant KSV: GLICL as quencher 0–14 µM, DRUG 8 µM (DRUG:BSA 4:1), λex 280 nm
Protocol: (§1) Bovine serum albumin (≥96%) was used to prepare 1.2 mM stock solution in PBS (pH 7.4). […] The concentration of BSA was controlled by the spectrophotometric method at 280 nm (with a molar coefficient of 43,824 cm^−1 M^−1). […] Simultaneously, a control sample containing BSA solution without any ligands was prepared. Measurements were performed in triplicate. All reagents were received from Sigma-Aldrich (St. Luis, MO, USA).
Fluorescence intensities of ternary models (BSA–DRUG–GLICL) were recorded using a Jasco FP-8200 spectrofluorometer with Peltier-thermo Cell Holder ETC-814 (Tokyo, Japan) at excitation wavelength of 280 nm, equipped with 1.0 cm quartz cells. The slit widths were set at 5 nm. The measurements were conducted at two different temperatures, 298 and 310 K. The fluorescence spectra of the drugs alone were also recorded. Each spectrum background was corrected by subtracting the spectrum of the phosphate buffer as a blank sample.
According to the assumption that fluorophores in a protein molecule may differ in accessibility, modified Stern–Volmer Equation (2) was used for the construction of plots and to calculate quenching constants:(2) F0/F0−F=1/fa·KSV·Q+1/fa where F0 and F are the fluorescence intensities in the absence and presence of gliclazide (GLICL), respectively; fa is the fraction of the initial fluorescence accessible to the quencher; Ksv is the Stern–Volmer quenching constant; and Q is the concentration of the quencher (GLICL).
The binding parameters (binding constant and number of binding sites) were obtained from double-log modified Stern–Volmer Equation (3):(3) logF0−F/F=logKa+n·logQ where F0 and F are the fluorescence intensities in the absence and presence of the quencher (gliclazide), respectively; Ka is the binding constant of the complex BSA–DRUG–GLICL, expressed as M^−1; n is the number of bound gliclazide molecules; and Q is the concentration of the quencher (GLICL).

[2] = tested on: plasma protein; settings: cited from earlier work; for Binding to plasma protein: general statement, no reference given
[3] = target: T1, bovine serum albumin (BSA)
Protocol: as §1
The circular dichroism spectra data were recorded using JASCO J-1500 spectropolarimeter (Tokyo, Japan) in the range of 205–250 nm, with a scanning speed of 200 nm/min and with 0.1 step resolution using a quartz cuvette with a length path of 0.1 cm. The measurements were conducted for binary (BSA–DRUG) and ternary (BSA–DRUG–GLICL) models to provide information about the influence of ligand binding on the protein structure. The baseline was corrected using a phosphate buffer, pH = 7.4.
Mean residue ellipticity (MRE) was calculated according to the following Equation (7) and expressed in deg cm^2 dmol^−1:(7) MRE=Θobs/cp·n·l·10 where Θobs is the observed CD (in mdegree), Cp is the molar concentration of BSA, n is the number of amino acid residues (583 for BSA), and l is the path length of the cuvette (0.1 cm).
The α-helical contents of free and modified BSA were calculated from MRE values at 208 nm with Equation (8):(8) α-helix (%)=MRE208−4000/33,000−4000 ·100 where MRE208 is the observed MRE value at 208 nm, 4000 is the MRE of the β-form and random coil conformation cross at 208 nm, and 33,000 is the MRE value of the pure α-helix of BSA at 208 nm.

[4] = target: T1, bovine serum albumin (BSA); remark: listed apart in the source
Protocol: as §1
The thermodynamic analysis of the interaction between albumin and GLICL was performed on measurements at three temperatures (298, 303, 310 K) based on the van’t Hoff Equations (4)–(6):(4) ΔG=−R·T·lnKa (5) ΔG=ΔH−T·ΔS (6) lnKa=−ΔH/R·T+ΔS/R where ΔG is the free energy change, ΔH is the enthalpy change, ΔS is the entropy change, R is the universal gas constant, and T is the temperature.

[5] = tested on: albumin; settings: cited from earlier work
[6] = tested on: BSA; parameters: method as in PMID 28888191; settings: no additional ligand, cited from earlier work
[7] = BSA–GLICL complex in presence of DRUG, 298 303 310 K

T1 sequence (P02769 25-607): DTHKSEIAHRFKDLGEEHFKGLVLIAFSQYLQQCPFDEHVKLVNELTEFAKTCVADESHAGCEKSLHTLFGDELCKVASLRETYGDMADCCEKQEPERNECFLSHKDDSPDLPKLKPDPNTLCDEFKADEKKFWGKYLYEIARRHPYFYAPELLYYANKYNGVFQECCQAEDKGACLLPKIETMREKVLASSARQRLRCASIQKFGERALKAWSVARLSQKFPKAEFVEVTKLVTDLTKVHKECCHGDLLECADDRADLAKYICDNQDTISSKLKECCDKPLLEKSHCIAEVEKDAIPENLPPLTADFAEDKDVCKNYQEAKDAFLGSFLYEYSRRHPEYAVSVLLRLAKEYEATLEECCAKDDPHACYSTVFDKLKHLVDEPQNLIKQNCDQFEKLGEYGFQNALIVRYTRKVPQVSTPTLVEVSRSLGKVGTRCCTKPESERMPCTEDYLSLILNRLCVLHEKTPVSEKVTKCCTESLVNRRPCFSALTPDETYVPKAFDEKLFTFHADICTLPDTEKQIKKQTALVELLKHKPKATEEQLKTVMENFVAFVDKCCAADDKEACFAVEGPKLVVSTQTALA

Compound: CCOC(=O)C1=C(COCCN)NC(C)=C(C(=O)OC)C1c1ccccc1Cl (stereo not drawn) [AML, amlodipine besylate]
Ka, association constant of BSA–GLICL complex in presence of DRUG [1]: 1.15 ± 0.01 10^4 M^−1
n, number of binding sites (bound gliclazide molecules) [1]: 0.93 ± 0.01 and 0.97 ± 0.01
Binding to plasma protein [2]: over 95%
Decreased α-Helix (%) [3]: 0.7%
ΔS [4]: 100.32 J/mol K

Compound: CC(C)NCC(O)COc1ccc(CC(N)=O)cc1 (stereo not drawn) [ATN, atenolol]
Association constant, site 1 of albumin [5]: approx. 10^3 M^−1

Compound: Cc1ccc(S(=O)(=O)NC(=O)NN2CC3CCCC3C2)cc1 (stereo not drawn) [GLICL, gliclazide]
Plasma protein binding [2]: up to 94%
Ka of BSA–GLICL (binary model) ([6]; 298 K): 3.80 10^4 M^−1
Ka of BSA–GLICL (binary model) ([6]; 310 K): 3.76 10^4 M^−1

n, number of binding sites (bound gliclazide molecules) ([1]; BSA–DRUG–GLICL, 298 K): 1.04 ± 0.01
n, number of binding sites (bound gliclazide molecules) ([1]; BSA–DRUG–GLICL, 310 K): 1.03 ± 0.03
Ka, association constant of BSA–GLICL complex in presence of DRUG ([1]; BSA–DRUG–GLICL, DRUG:BSA 4:1, 298 K): 1.65 ± 0.02 10^4 M^−1
Ka, association constant of BSA–GLICL complex in presence of DRUG ([1]; BSA–DRUG–GLICL, DRUG:BSA 4:1, 310 K): 2.09 ± 0.07 10^4 M^−1
Stern–Volmer quenching constant KSV ([1]; BSA–DRUG–GLICL, 298 K): 2.23 ± 0.01 10^4 M^−1
Stern–Volmer quenching constant KSV ([1]; BSA–DRUG–GLICL, 310 K): 0.96 ± 0.16 10^4 M^−1
Mechanism of quenching of BSA fluorescence by GLICL in presence of DRUG ([1]; from temperature dependence of KSV, 298 vs 310 K): static mechanism
Change of Ka of BSA–GLICL complex in comparison to the binary model ([1]; ternary vs binary model (binary Ka from ref 24)): more than a twofold decrease
α-Helix Content (%) ([3]; binary BSA–DRUG, molar ratio 1:4, 310 K (BSA alone 68.7)): 67.6%
Decreased α-Helix (%) ([3]; binary BSA–DRUG, molar ratio 1:4, 310 K, vs BSA alone): 1.1%
α-Helix Content (%) ([3]; ternary BSA–DRUG–GLICL, BSA:Ligand 1:4, BSA:GLICL 1:7, 310 K (BSA alone 68.7)): 63.1%
Decreased α-Helix (%) ([3]; ternary BSA–DRUG–GLICL, BSA:Ligand 1:4, BSA:GLICL 1:7, 310 K, vs BSA alone): 5.6%
ΔH [4, 7]: 3.604 kcal/mol
ΔS [4, 7]: 131.36 J/mol K
ΔG ([4]; BSA–GLICL complex in presence of DRUG, 298 K): -5.753 kcal/mol
ΔG ([4]; BSA–GLICL complex in presence of DRUG, 303 K): -5.908 kcal/mol
ΔG ([4]; BSA–GLICL complex in presence of DRUG, 310 K): -6.128 kcal/mol
Compound: CCOC(=O)[C@H](CCc1ccccc1)N[C@@H](C)C(=O)N1Cc2ccccc2C[C@H]1C(=O)O [QUI, quinapril hydrochloride]
Binding to plasma protein [2]: over 95%

Ka, association constant of BSA–GLICL complex in presence of DRUG [1]: 0.12 ± 0.04 10^4 M^−1
Mechanism of quenching of BSA fluorescence by GLICL in presence of DRUG [1]: static mechanism
n, number of binding sites (bound gliclazide molecules) [1]: 0.87 ± 0.01 and 0.74 ± 0.02
Decreased α-Helix (%) [3]: 1.0% and 3.5%
α-Helix Content (%) [3]: 67.7% and 65.2%
ΔG [4]: -5.21 kcal/mol
ΔH [4]: 23.924 kcal/mol
ΔS [4]: 393.25 J/mol K
Compound: CCCCC(=O)N(Cc1ccc(-c2ccccc2-c2nnn[nH]2)cc1)[C@H](C(=O)O)C(C)C [VAL, valsartan]
Protein binding [2]: 95%
